This note sets out measurements from patent US11014904B2, “1,2,4-triazine-3-amine derivative, preparation method therefor, and use thereof in medicine” (Jiangsu Hengrui Medicine Co., Ltd., priority 2017, dated 2021).

The structures appear in SMILES notation.

In data set [1] the target is T1, adenosine A3 receptor (A3R) (Homo sapiens, UniProt P0DMS8).
T1 construct: expressed in transfected cells; host or cells: CHO-K1
T1 sequence (P0DMS8 1-318): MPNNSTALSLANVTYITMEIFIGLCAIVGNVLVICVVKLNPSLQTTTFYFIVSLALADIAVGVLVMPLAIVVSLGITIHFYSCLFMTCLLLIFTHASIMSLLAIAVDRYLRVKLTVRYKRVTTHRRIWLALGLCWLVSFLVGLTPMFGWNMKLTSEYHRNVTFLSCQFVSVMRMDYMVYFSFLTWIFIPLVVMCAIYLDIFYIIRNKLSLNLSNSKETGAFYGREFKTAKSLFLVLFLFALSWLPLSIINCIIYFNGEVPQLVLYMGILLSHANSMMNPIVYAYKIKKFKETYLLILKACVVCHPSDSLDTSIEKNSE
The experiment in a line: Inhibition of the adenosine A3 receptor cAMP signaling pathway in CHO-K1/A3R cells (HTRF). Conditions: for IC50: CHO-K1/A3R cells, cAMP, forskolin 10 μM, 2Cl-IB-MECA 5 nM; for IC50 ratio (A3R/A2aR): selectivity A3R over A2aR. In kind it is cell-based. The source says: Determination of the inhibition activity of the compounds of the present invention on the adenosine A2a receptor (A2aR) cAMP signaling pathway, the adenosine A2b receptor (A2bR) cAMP signaling pathway, the adenosine A1 receptor (A1R) cAMP signaling pathway and the adenosine A3 receptor (A3R) cAMP signaling pathway.
The inhibition activity of the compounds of the present invention on the adenosine A2a receptor (A2aR) cAMP signaling pathway, the adenosine A2b receptor cAMP signaling pathway, the adenosine A1 receptor cAMP signaling pathway and the adenosine A3 receptor cAMP signaling pathway was determined by the following method. The experimental method is briefly described as follows:
2.4 Adenosine A3 Receptor
CHO-K1/A3R cells were cultured in DMEM/F12 medium containing 10% fetal bovine serum and 10 μg/ml puromycin. The cells were digested with the cell separation buffer during the experiment. The cells were resuspended in the balanced salt buffer containing 20 mM HEPES and 0.1% bovine serum albumin and counted, and the cell density was adjusted to 5×10^5 cells/ml. In the 384-well plate, each well was added with 12.5 μl of cell suspension, and 6.25 μl of test compound (4× concentration) formulated with the balanced salt buffer containing 20 mM HEPES, 0.1% bovine serum albumin, 54 μM rolipram and 2.7 U/ml adenosine deaminase, and the plate was incubated at room temperature for 30 minutes. Each well was then added with 6.25 μl of forskolin and 2Cl-IB-MECA (4× concentration) formulated with the balanced salt buffer containing 20 mM HEPES, 0.1% bovine serum albumin, 54 μM rolipram and 2.7 U/ml adenosine deaminase, and the plate was incubated at room temperature for 30 minutes. The final concentrations of the compounds were: 100000, 10000, 1000, 100, 10, 1, 0.1 and 0 nM. The final concentrations of forskolin was 10 μM. The final concentration of 2Cl-IB-MECA was 5 nM. Intracellular cAMP concentration was detected with the cAMP dynamic 2 kit. cAMP-d2 and Anti-cAMP-Eu-Cryptate were diluted respectively with the cAMP lysis buffer at a ratio of 1:4. Each well was added with 12.5 μl of diluted cAMP-d2, followed by addition of 12.5 μl of diluted Anti-cAMP-Eu-Cryptate, and the plate was incubated at room temperature in the dark for 1 hour. The HTRF signal values were read by the PHERAstar multi-function microplate reader.
Background: Time-resolved FRET reads energy transfer from a long-lived donor to a nearby acceptor.

A short description of data set [2]: Pharmacokinetics assay in mice. To be noted: mouse, po, C57 mice (female), intragastric, 2 mg/kg, plasma; for Vd/F: read-out: Apparent distribution volume Vz/F; for AUC: read-out: Area under curve AUC; for CL/F: read-out: Clearance CLz/F; for half-life: read-out: Half-life T½ (converted); for Cmax: read-out: Plasma concentration Cmax; for MRT: read-out: Residence time MRT. In kind it is in vivo. As for the experimental part: Mice were used as test animals. The drug concentration in plasma at different time points was determined by LC/MS/MS method after intragastrical administration of the compounds of Examples 2, 3, 17, 18, 19, 20, 31 and 44 to mice. The pharmacokinetic behavior of the compounds of the present invention was studied and evaluated in mice.
Seventy-two C57 mice (female) were purchased from Shanghai Jiesijie Laboratory Animal Co., LTD, with Certificate No.: SCXK (Shanghai) 2013-0006, and equally divided into 8 groups (9 mice per group).
A certain amount of the test compound was weighed, and added with 5% by volume of DMSO, 5% by volume of tween 80 and 90% by volume of normal saline to prepare a 0.1 mg/mL colorless, clear and transparent solution.
After an overnight fast, C57 mice were administered intragastrically the test compounds at an administration dosage of 2.0 mg/kg and an administration volume of 0.2 mL/10 g.
The mice were intragastrically administered the compounds of Examples 2, 3, 17, 18, 19, 20, 31 and 44. 0.1 ml of blood was taken before administration and at 0.5, 1.0, 2.0, 4.0, 6.0, 8.0, 11.0 and 24.0 hours after administration. The samples were stored in heparinized tubes, and centrifuged for 10 minutes at 3,500 rpm to separate the blood plasma. The plasma samples were stored at −20° C.
The content of the test compounds in the plasma of mice after intragastrical administration of the test compounds at different concentrations was determined: 25 μL of mouse plasma at each time after administration were taken, added with 50 μL of the internal standard solution of camptothecin (100 ng/mL) and 200 μL of acetonitrile, vortex-mixed for 5 minutes, and centrifuged for 10 minutes (4000 rpm). 5 μL of the supernatant were taken from the plasma samples for LC/MS/MS analysis.

`Nc1nnc(-c2cc(F)c3ncccc3c2)c(-c2ccccc2)n1` [Example 2, 6-(8-Fluoroquinolin-6-yl)-5-phenyl-1,2,4-triazin-3-amine]: in data set [1], the IC50 (as a rule, the point on the concentration scale where inhibition reaches its midpoint) was > 10000 nM and the “IC50 ratio (A3R/A2aR)” value is recorded as >10^4. In data set [2], the Vd/F was 14.7 L/kg; the AUC (as a rule, concentration integrated over time) was 412 ng·h/mL; the CL/F amounted to 78.3 mL/min/kg; the half-life (in general, how long it takes for the measured level to halve) is 130 min. In addition, in data set [2], the Cmax worked out at 441 ng/mL and the MRT (commonly a mean duration of stay, worked out from the concentration-time curve) stood at 1.79 h.
`Nc1nnc(-c2ccc3ncccc3c2)c(-c2ccccc2)n1` [Example 3, 5-Phenyl-6-(quinolin-6-yl)-1,2,4-triazin-3-amine]: in data set [1], the IC50 was > 10000 nM and the “IC50 ratio (A3R/A2aR)” value is recorded as >10^4. Also, in data set [2], the Vd/F was determined as 15.7 L/kg, the area under the curve (AUC) was 419 ng·h/mL, the CL/F was 78.6 mL/min/kg and the half-life is 138 min. In data set [2], the Cmax was found to be 395 ng/mL and the MRT is 1.61 h.
For the compound `Cc1ncnc2ccc(-c3nnc(N)nc3-c3ccccc3)cc12` [Example 15, 6-(4-Methylquinazolin-6-yl)-5-phenyl-1,2,4-triazin-3-amine], in data set [1], the IC50 was > 10000 nM and the “IC50 ratio (A3R/A2aR)” value is reported as >10^4.
Regarding `Cc1ccnc2c(F)cc(-c3nnc(N)nc3-c3ccccc3)cc12` [Example 16, 6-(8-Fluoro-4-methylquinolin-6-yl)-5-phenyl-1,2,4-triazin-3-amine], in data set [1], the IC50 is > 10000 nM and the “IC50 ratio (A3R/A2aR)” value was >10^4.
`Cc1ccnc2ccc(-c3nnc(N)nc3-c3ccccc3F)cc12` [Example 17, 5-(2-Fluorophenyl)-6-(4-methylquinolin-6-yl)-1,2,4-triazin-3-amine]: in data set [1], the IC50 is > 10000 nM and the “IC50 ratio (A3R/A2aR)” value is reported as >10^4. Also, in data set [2], the Vd/F amounted to 15.3 L/kg, the AUC amounted to 204 ng·h/mL, the CL/F was 162 mL/min/kg and the half-life is 65.4 min. For the same compound, in data set [2], the Cmax turned out to be 265 ng/mL and the MRT worked out at 1.17 h.
As to `Cc1ccnc2ccc(-c3nnc(N)nc3-c3ccc(F)cc3)cc12` [Example 18, 5-(4-Fluorophenyl)-6-(4-methylquinolin-6-yl)-1,2,4-triazin-3-amine], in data set [1], the IC50 was > 10000 nM and the “IC50 ratio (A3R/A2aR)” value is given as >10^4. For the same compound, in data set [2], the Vd/F was found to be 9.01 L/kg, the AUC was 495 ng·h/mL, the CL/F was determined as 65 mL/min/kg and the half-life was 95.4 min. Also, in data set [2], the Cmax stood at 402 ng/mL and the MRT is 1.43 h.
As for `Cc1ncnc2ccc(-c3nnc(N)nc3-c3ccc(F)cc3)cc12` [Example 19, 5-(4-Fluorophenyl)-6-(4-methylquinazolin-6-yl)-1,2,4-triazin-3-amine], in data set [1], the IC50 is > 10000 nM and the “IC50 ratio (A3R/A2aR)” value is recorded as >10^4. Besides, in data set [2], the Vd/F was found to be 1.57 L/kg, the AUC was 5030 ng·h/mL, the CL/F is 6.61 mL/min/kg and the half-life was 164 min. In addition, in data set [2], the Cmax came out at 1960 ng/mL and the MRT was determined as 3.13 h.
On to `Cc1ccnc2c(F)cc(-c3nnc(N)nc3-c3ccc(F)cc3)cc12` [Example 20, 6-(8-Fluoro-4-methylquinolin-6-yl)-5-(4-fluorophenyl)-1,2,4-triazin-3-amine], for which, in data set [1], the IC50 was > 10000 nM and the “IC50 ratio (A3R/A2aR)” value is >10^3. In addition, in data set [2], the Vd/F came out at 3.05 L/kg, the AUC came to 1170 ng·h/mL, the CL/F was determined as 28 mL/min/kg and the half-life was 74.4 min. Also, in data set [2], the Cmax was 866 ng/mL and the MRT is 1.41 h.
Turning to `[2H]C([2H])([2H])c1ccnc2ccc(-c3nnc(N)nc3-c3ccc(F)cc3)cc12` [Example 22, 5-(4-Fluorophenyl)-6-[4-(trideuteromethyl)-6-quinolinyl]-1,2,4-triazin-3-amine], in data set [1], the 50% inhibitory concentration (IC50) was > 10000 nM and the “IC50 ratio (A3R/A2aR)” value was >10^4.
Turning to `Cc1ccnc2c(F)cc(-c3nnc(N)nc3-c3ccccc3F)cc12` [Example 31, 6-(8-Fluoro-4-methylquinolin-6-yl)-5-(2-fluorophenyl)-1,2,4-triazin-3-amine], in data set [1], the IC50 is > 10000 nM and the “IC50 ratio (A3R/A2aR)” value was >10^3. In data set [2], the Vd/F was 16.7 L/kg, the AUC came out at 339 ng·h/mL, the CL/F was 95 mL/min/kg and the half-life was 121 min. Besides, in data set [2], the Cmax turned out to be 302 ng/mL and the MRT was found to be 2.02 h.
In the case of `CCc1ccnc2ccc(-c3nnc(N)nc3-c3ccc(F)cc3)cc12` [Example 44, 6-(4-Ethylquinolin-6-yl)-5-(4-fluorophenyl)-1,2,4-triazin-3-amine], in data set [1], the IC50 was > 10000 nM and the “IC50 ratio (A3R/A2aR)” value was >10^4. Also, in data set [2], the Vd/F is 4.79 L/kg, the AUC turned out to be 501 ng·h/mL, the CL/F came to 65 mL/min/kg and the half-life is 51 min. Also, in data set [2], the Cmax was 720 ng/mL and the MRT was 0.85 h.
Regarding `Cc1ncnc2c(F)cc(-c3nnc(N)nc3-c3ccccc3)cc12` [Example 45, 6-(8-Fluoro-4-methylquinazolin-6-yl)-5-phenyl-1,2,4-triazin-3-amine], in data set [1], the IC50 is > 10000 nM and the “IC50 ratio (A3R/A2aR)” value is given as >10^3.
Regarding `[2H]C([2H])([2H])c1ncnc2ccc(-c3nnc(N)nc3-c3ccc(F)cc3)cc12` [Example 52, 5-(4-Fluorophenyl)-6-(4-(methyl-d3)quinazolin-6-yl)-1,2,4-triazin-3-amine], in data set [1], the concentration for half-maximal inhibition (IC50) is > 10000 nM and the “IC50 ratio (A3R/A2aR)” value is given as >10^4.
